Key:
hPMBC = test: Chymotrypsin-like ProteasomeGlo assay in hPBMC; assay type: cell-based; settings: Homo sapiens; read-out: Pglo hPBMC
Method in brief: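 B cells isolated from human PBMC (buffy coats, density gradient, magnetic isolation). Cells treated with compound for 105 min at 37 °C, with staurosporine and DMSO included. Chymotrypsin-like proteasome activity read by luminescence with Suc-LLVY-Glo substrate to derive IC50.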

[1] = biological target: T1, β5 subunit of the human immunoproteasome (IPS) (Homo sapiens, UniProt P28062); test: β5 inhibition assay, human immunoproteasome (Suc-LLVY-AMC); assay type: biochemical; settings: IC50 class, Suc-LLVY-AMC substrate
T1 construct: purchased Boston Biochem E-370
Method in brief: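 Human immunoproteasome (1 nM final) was preincubated 10 min at RT with compound in 100 mM HEPES pH 7.5, 50 mM NaCl, 0.02% SDS, 1 mM DTT. Suc-LLVY-AMC (22.6 μM final) was then added for 4 h at RT in the dark. After stopping with 1 μM bortezomib, AMC fluorescence was read (ex 355/em 460 nm).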

| IC50 (hPMBC) | IC50 [1] | SMILES |
| --- | --- | --- |
| < 0.1 µM | < 0.1 µM | CC(=O)N[C@H]1CC(=O)N2CCCC(CCOc3ccc(F)c(c3)CNC(=O)[C@H](CCc3ccccc3)NC1=O)C2 (stereo partly drawn) [Compound 205, N-((9S,12S)-5^4-fluoro-8,11,14-trioxo-9-phenethyl-4-oxa-7,10-diaza-1(3,1)-piperidina-5(1,3)-benzenacyclotetradecaphane-12-yl)acetamide] |
| 0.5 to 1 µM | 0.1 to 0.5 µM | Cc1ccc2cc1CNC(=O)[C@H](C)NC(=O)CCC(=O)N1CCCC(CCO2)C1 (stereo partly drawn) [Compound 78, (9S)-5^4,9-dimethyl-4-oxa-7,10-diaza-1(3,1)-piperidina-5(1,3)-benzenacyclotetradecaphane-8,11,14-trione] |
| < 0.1 µM | < 0.1 µM | CNCC(=O)N[C@H]1CC(=O)N2CCCC(CCOc3ccc(C)c(c3)CNC(=O)[C@H](CCc3ccccc3)NC1=O)C2 (stereo partly drawn) [Compound 129, N-((9S,12S)-5^4-methyl-8,11,14-trioxo-9-phenethyl-4-oxa-7,10-diaza-1(3,1)-piperidina-5(1,3)-benzenacyclotetradecaphane-12-yl)-2-(methylamino)acetamide] |
| < 0.1 µM | < 0.1 µM | Cc1ccc2cc1CNC(=O)[C@H](CCc1ccccc1)NC(=O)[C@@H](NC(=O)C1(C)CCOCC1)CC(=O)N1CCCC(CCO2)C1 (stereo partly drawn) [Compound 288, 4-methyl-N-((9S,12S)-5^4-methyl-8,11,14-trioxo-9-phenethyl-4-oxa-7,10-diaza-1(3,1)-piperidina-5(1,3)-benzenacyclotetradecaphane-12-yl)tetrahydro-2H-pyran-4-carboxamide] |
| < 0.1 µM | < 0.1 µM | CO[C@@H](C(=O)N[C@H]1CC(=O)N2CCCC(CCOc3ccc(C)c(c3)CNC(=O)[C@H](CCc3ccccc3)NC1=O)C2)c1ccccc1 (stereo partly drawn) [Compound 86, (2R)-2-methoxy-N-((9S,12S)-5^4-methyl-8,11,14-trioxo-9-phenethyl-4-oxa-7,10-diaza-1(3,1)-piperidina-5(1,3)-benzenacyclotetradecaphane-12-yl)-2-phenylacetamide] |
| 0.1 to 0.5 µM | < 0.1 µM | Cc1cc2cc(c1C)CNC(=O)[C@H](Cc1c[nH]c3ccccc13)NC(=O)CCC(=O)N1CCCC(CCO2)C1 (stereo partly drawn) [Compound 120, (9S)-9-((1H-indol-3-yl)methyl)-5^4,5^5-dimethyl-4-oxa-7,10-diaza-1(3,1)-piperidina-5(1,3)-benzenacyclotetradecaphane-8,11,14-trione] |
| < 0.1 µM | < 0.1 µM | Cc1ccc2cc1CNC(=O)[C@H](CCc1ccccc1)NC(=O)[C@@H](NC(=O)Cc1cccc(N)c1)CC(=O)N1CCCC(CCO2)C1 (stereo partly drawn) [Compound 127, 2-(3-aminophenyl)-N-((9S,12S)-5^4-methyl-8,11,14-trioxo-9-phenethyl-4-oxa-7,10-diaza-1(3,1)-piperidina-5(1,3)-benzenacyclotetradecaphane-12-yl)acetamide] |
| 0.5 to 1 µM | 0.1 to 0.5 µM | Cc1ccc2cc1CNC(=O)C(c1cnn(C)c1)NC(=O)CCC(=O)N1CCCC(CCO2)C1 (stereo not shown) [Compound 116, 5^4-methyl-9-(1-methyl-1H-pyrazol-4-yl)-4-oxa-7,10-diaza-1(3,1)-piperidina-5(1,3)-benzenacyclotetradecaphane-8,11,14-trione] |
| < 0.1 µM | < 0.1 µM | Cc1ccc2cc1CNC(=O)[C@H](CCc1ccccc1)NC(=O)[C@@H](NC(=O)C1(F)CCNCC1)CC(=O)N1CCCC(CCO2)C1 (stereo partly drawn) [Compound 134, 4-fluoro-N-((9S,12S)-5^4-methyl-8,11,14-trioxo-9-phenethyl-4-oxa-7,10-diaza-1(3,1)-piperidina-5(1,3)-benzenacyclotetradecaphane-12-yl)piperidine-4-carboxamide] |
| < 0.1 µM | < 0.1 µM | Cc1ccc2cc1CNC(=O)[C@H](CCc1ccccc1)NC(=O)[C@@H](NC(=O)OCc1ccccc1)CCCC(=O)N1CCCC(CCO2)C1 (stereo partly drawn) [Compound 195, benzyl ((9S,12S)-5^4-methyl-8,11,16-trioxo-9-phenethyl-4-oxa-7,10-diaza-1(3,1)-piperidina-5(1,3)-benzenacyclohexadecaphane-12-yl)carbamate] |
| < 0.1 µM | < 0.1 µM | Cc1ccc2cc1CNC(=O)[C@H](CCc1ccccc1)NC(=O)[C@@H](NS(=O)(=O)CCc1ccccc1)CC(=O)N1CCCC(CCO2)C1 (stereo partly drawn) [Compound 217, N-((9S,12S)-5^4-methyl-8,11,14-trioxo-9-phenethyl-4-oxa-7,10-diaza-1(3,1)-piperidina-5(1,3)-benzenacyclotetradecaphane-12-yl)-2-phenylethane-1-sulfonamide] |
| < 0.1 µM | < 0.1 µM | COCCOCCOCCOCCOCCC(=O)N[C@H]1CC(=O)N2CCCC(CCOc3ccc(C)c(c3)CNC(=O)[C@H](CCc3ccccc3)NC1=O)C2 (stereo partly drawn) [Compound 219, N-((9S,12S)-5^4-methyl-8,11,14-trioxo-9-phenethyl-4-oxa-7,10-diaza-1(3,1)-piperidina-5(1,3)-benzenacyclotetradecaphane-12-yl)-2,5,8,11,14-pentaoxaheptadecan-17-amide] |
| < 0.1 µM | < 0.1 µM | Cc1ccc2cc1CNC(=O)[C@H](CCc1ccccc1)NC(=O)[C@@H](NS(=O)(=O)Cc1ccccc1)CC(=O)N1CCCC(CCO2)C1 (stereo partly drawn) [Compound 216, N-((9S,12S)-5^4-methyl-8,11,14-trioxo-9-phenethyl-4-oxa-7,10-diaza-1(3,1)-piperidina-5(1,3)-benzenacyclotetradecaphane-12-yl)-1-phenylmethanesulfonamide] |
| > 5 µM | 0.5 to 1 µM | Cc1ccc2cc1CNC(=O)[C@@H](CCc1ccccc1)NC(=O)[C@H](NC(=O)OCc1ccccc1)CC(=O)N1CCC[C@H](CCO2)C1 [Compound 290, benzyl ((13R,9R,12R)-5^4-methyl-8,11,14-trioxo-9-phenethyl-4-oxa-7,10-diaza-1(3,1)-piperidina-5(1,3)-benzenacyclotetradecaphane-12-yl)carbamate] |
| 1 to 5 µM | 1 to 5 µM | CC(=O)N[C@H]1CCCC(=O)N2CCC2(C)COc2ccc(C)c(c2)CNC(=O)[C@H](CCc2ccccc2)NC1=O (stereo partly drawn) [Compound 281, N-((8S,11S)-1^2,4^4-dimethyl-7,10,15-trioxo-8-phenethyl-3-oxa-6,9-diaza-1(2,1)-azetidina-4(1,3)-benzenacyclopentadecaphane-11-yl)acetamide] |
| 0.5 to 1 µM | < 0.1 µM | CC(=O)N[C@H]1CCC(=O)N2CCCC(C2)Oc2ccc(C)c(c2)CNC(=O)[C@H](CCc2ccccc2)NC1=O (stereo partly drawn) [Compound 148, N-((7S,10S)-3^4-methyl-6,9,13-trioxo-7-phenethyl-2-oxa-5,8-diaza-1(3,1)-piperidina-3(1,3)-benzenacyclotridecaphane-10-yl)acetamide] |
| 0.1 to 0.5 µM | < 0.1 µM | CC(=O)N[C@H]1CC(=O)N2CCOC(CCOc3ccc(C)c(c3)CNC(=O)[C@H](CCc3ccccc3)NC1=O)C2 (stereo partly drawn) [Compound 258, N-((9S,12S)-5^4-methyl-8,11,14-trioxo-9-phenethyl-4-oxa-7,10-diaza-1(2,4)-morpholina-5(1,3)-benzenacyclotetradecaphane-12-yl)acetamide] |
| 0.5 to 1 µM | 0.5 to 1 µM | CC(=O)N[C@H]1CCC(=O)N(C)CCCCOc2ccc(C)c(c2)CNC(=O)[C@H](CCc2ccccc2)NC1=O [Compound 282, N-((11S,14S)-1^4,7-dimethyl-8,12,15-trioxo-1^4-phenethyl-2-oxa-7,13,16-triaza-1(1,3)-benzenacycloheptadecaphane-11-yl)acetamide] |
| 0.1 to 0.5 µM | < 0.1 µM | Cc1ccc2cc1CNC(=O)[C@H](CCc1ccccc1)NC(=O)[C@@H](NC(=O)c1n[nH]c3ccccc13)CC(=O)N1CCCC(CCO2)C1 (stereo partly drawn) [Compound 60, N-((9S,12S)-5^4-methyl-8,11,14-trioxo-9-phenethyl-4-oxa-7,10-diaza-1(3,1)-piperidina-5(1,3)-benzenacyclotetradecaphane-12-yl)-1H-indazole-3-carboxamide] |
| < 0.1 µM | < 0.1 µM | COc1ccccc1CC(=O)N[C@H]1CC(=O)N2CCCC(CCOc3ccc(C)c(c3)CNC(=O)[C@H](CCc3ccccc3)NC1=O)C2 (stereo partly drawn) [Compound 84, 2-(2-methoxyphenyl)-N-((9S,12S)-5^4-methyl-8,11,14-trioxo-9-phenethyl-4-oxa-7,10-diaza-1(3,1)-piperidina-5(1,3)-benzenacyclotetradecaphane-12-yl)acetamide] |
| < 0.1 µM | < 0.1 µM | CC(=O)N[C@H]1CC(=O)N2CCCC(CCOc3ccc(C)c(c3)CNC(=O)C(c3cnn(CCCS(=O)(=O)O)c3)NC1=O)C2 (stereo partly drawn) [Compound 571, 3-(4-((12S)-12-acetamido-5^4-methyl-8,11,14-trioxo-4-oxa-7,10-diaza-1(3,1)-piperidina-5(1,3)-benzenacyclotetradecaphane-9-yl)-1H-pyrazol-1-yl)propane-1-sulfonic acid] |
| < 0.1 µM | < 0.1 µM | Cc1ccc2cc1CNC(=O)[C@H](CCc1ccccc1)NC(=O)[C@@H](NC(=O)C1(N)CCOC1)CC(=O)N1CCCC(CCO2)C1 (stereo partly drawn) [Compound 159, 3-amino-N-((9S,12S)-5^4-methyl-8,11,14-trioxo-9-phenethyl-4-oxa-7,10-diaza-1(3,1)-piperidina-5(1,3)-benzenacyclotetradecaphane-12-yl)tetrahydrofuran-3-carboxamide] |
| < 0.1 µM | < 0.1 µM | Cc1ccc2cc1CNC(=O)[C@H](CCc1ccccc1)NC(=O)[C@@H](NC(=O)C1(C)CCNCC1)CC(=O)N1CCCC(CCO2)C1 (stereo partly drawn) [Compound 136, 4-methyl-N-((9S,12S)-5^4-methyl-8,11,14-trioxo-9-phenethyl-4-oxa-7,10-diaza-1(3,1)-piperidina-5(1,3)-benzenacyclotetradecaphane-12-yl)piperidine-4-carboxamide] |

From patent US20240415819A1, “MACROCYCLIC COMPOUNDS AS PROTEASOME SUBUNIT BETA TYPE-5 INHIBITORS” (Lead Discovery Center GmbH, priority 2021, published 2024)
